From PMC9841589, “Identification of 2-Aminoacyl-1,3,4-thiadiazoles as Prostaglandin E2 and Leukotriene Biosynthesis Inhibitors” (ACS Medicinal Chemistry Letters, 2022) come the findings set out here.

For assay [1], the system named is 5-LO product formation in human M1 macrophages. Briefly: Determination of LO products in human macrophages. Format: cell-based. The conditions noted are these: 10 µM, activated by Staphylococcus aureus for 90 min. The protocol:
Figure S4. Human monocyte-derived macrophages were pre-treated with test compounds (10 µM) or vehicle 15 min prior stimulation. Cells were then stimulated with S. aureus for 90 min. Data are expressed as percentage of the mean of the 100% control DMSO of n=3 experiments. […]
Determination of LO products in human macrophages
Human M1 macrophages (2 x 10^6 /mL) were pre-treated with test compounds or vehicle (DMSO, 0.1%) for 15 min. Afterward, 1% Staphylococcus aureus 6850wt-conditioned medium (SACM) was added for 90 minutes at 37 °C in order to induce LO product formation. The reaction was stopped by transferring supernatants (1 mL) into 2 mL ice-cold MeOH. After addition of the deuterated LM standards (200 nM d8-5S-HETE, d4-LTB4, d5-LXA4, d5-RvD2, d4-PGE2 and 10 µM d8-AA; Cayman Chemical/Biomol GmbH, Hamburg, Germany), samples were kept at −20 °C for 60 min and then centrifuged (1,200×g, 4°C, 10 min). Solid-phase C18 cartridges were equilibrated with 6 mL methanol before the addition of 6 mL H2O. Then, 9 mL acidified H2O (pH 3.5, HCl) was added, and the samples were loaded onto the conditioned C18 columns that were subsequently washed with 6 mL H2O, followed by 6 mL n-hexane. The LM were eluted with 6 mL of methyl formate, samples were brought to dryness using an evaporation system (TurboVap LV, Biotage) and immediately […]
resuspended in methanol-water (50:50 vol/vol) for UPLC-MS-MS automated injections. The UPLC-MS-MS system consisted of an Acquity UPLC BEH C18 column (1.7 µm, 2.1 × 50 mm, Waters) and an AcquityTM UPLC (Waters) as well as a QTRAP 5500 mass spectrometer (Sciex, Darmstadt, Germany) equipped with an electrospray ionization source. The QTrap 5500 was operated in negative ionization mode using scheduled multiple reaction monitoring (MRM) coupled with the information-dependent acquisition (IDA) and an enhanced product ion scan (EPI). The scheduled MRM window was 90 s, and each LM parameter was optimized individually. LOX product analysis, using an MRM method with diagnostic ion fragments and identification, was performed as described previously.922 […]
Following incubations of 24 h, cells were collected with a cell scraper and, after centrifugation at 14000 × g for 10 min at 4 °C, the supernatant was collected and stored at −80°C for ELISA analysis 1023.
Male CD-1 mice (25–30 g of weight) were obtained from Charles River (Milan, Italy) and kept in an animal care facility under controlled temperature, humidity, with ad libitum access to water and standard laboratory chow diet. All experimental procedures were carried out according to the international and national law and policies (EU Directive 2010/63/EU for animal experiments, ARRIVE guidelines, and the Basel declaration including the 3R concept)11,1224, 25. […]

The subject of assay [2] is 5-LO product formation in intact neutrophils (PMNL). The assay can be described thus: Determination of 5-LO products in neutrophils. Format: cell-based. The following applies: Homo sapiens. As to the method: Figure S3. Concentration-response curves for inhibition of 5-LO product formation in neutrophils.
Cells were pre-incubated with compounds 3, 6, 7 and 9 or 0.1% DMSO over 10 min at 37 °C, and then stimuli were added. On the left (A,C, E, G), cells were stimulated with 2.5 µM Ca 2+-ionophore A23187 over 10 min; on the right (B, D, F, H), cells were stimulated with 2.5 µM Ca 2+-ionophore A23187 plus 20 µM arachidonic acid over 10 min. Data are expressed as percentage of uninhibited control (100%), means, S.E.M., n = 3. […]
Determination of 5-LO products in neutrophils
Freshly isolated neutrophils were resuspended in PBS buffer containing 0.1% glucose and 1 mM CaCl2 to a final cell density of 5 × 10 6. Cells were pre-incubated with compounds 3, 6, 7, 9 or DMSO vehicle (0.1%) at 37 °C for 10 min. Then, 2.5 µM Ca 2+-ionophore A23187 (with or without supplementation of 20 µM of arachidonic acid) was added as stimulus, and cells were left at 37 °C for 10 min. 1 mL of ice-cold methanol was used to stop the reaction of 5-LO product formation on ice, and 530 µL of PBS plus HCl and PGB 1 (as internal standard) were added. Finally, cells were centrifuged (2000 x g) over 10 min at room temperature, and 5-LO products were extracted by solid-phase extraction, and they were quantified by RP-HPLC as described above. […]

The mark [3] stands for this setting: 2.5 µM A23187, n = 3, read-out: 5-LO product formation on PMNL, IC50 value ± SEM, stimulus: A23187.
The mark [4] stands for this setting: 2.5 µM A23187 plus 20 μM arachidonic acid, n = 3, read-out: 5-LO product formation on PMNL, IC50 value ± SEM, stimulus: A23187 + AA.

Where two headings read alike, the source gives them in different places.

`O=C(Nc1nnc(-c2ccc(-c3cccc(O)c3)cc2)s1)c1ccccc1Br` [compound 3]: in assay [1], the “cellular 5-LO product formation in pro-inflammatory macrophages” value (“cellular 5-LO product formation” for short) is recorded as “potent inhibition of cellular 5-LO product formation”. The figures for the half-inhibitory concentration (IC50) in assay [2] (setting [3]) and in assay [2] (setting [4]) were 4.9 ± 0.5 µM and 5.2 ± 1.2 µM, respectively.

On to `Cc1cc(C(=O)Nc2nnc(-c3ccc(-c4ccccc4N)cc3)s2)cc(Cl)n1` [compound 6], for which the “cellular 5-LO product formation” value in assay [1] was “potent inhibition of cellular 5-LO product formation”. In addition, the results for the IC50 in assay [2] (setting [3]) and in assay [2] (setting [4]) were 4.8 ± 1.9 µM and 6.9 ± 2.2 µM, respectively.

For `Nc1ccccc1-c1ccc(-c2nnc(NC(=O)c3ccccc3Br)s2)cc1` [compound 7], in assay [1], the “cellular 5-LO product formation” value is “potent inhibition of cellular 5-LO product formation”. The values for the IC50 in assay [2] (setting [3]) and in assay [2] (setting [4]) were 4.2 ± 1.4 µM and 2.3 ± 0.8 µM, respectively.

Turning to `Nc1ccccc1-c1ccc(-c2nnc(NC(=O)c3c(Cl)ccnc3Cl)s2)cc1` [compound 9], the “cellular 5-LO product formation” value in assay [1] is “potent inhibition of cellular 5-LO product formation”. Besides, the IC50 (usually the point on the concentration scale where inhibition reaches its midpoint) in assay [2] (setting [3]) stood at 2.1 ± 0.3 µM; in assay [2] (setting [4]) it was 4.2 ± 0.3 µM.
